Assay results reported in patent US9845322B2 (Hoffmann-La Roche Inc., priority 2016, dated 2017).
Like-named read-outs stand apart in the source and are kept apart here.

Tested on: HBsAg secretion in HepG2.2.15 cells
Assay: HBsAg assay (chemiluminescence immunoassay of secreted HBsAg in culture supernatant)
Type: cell-based, HBV
Description: HepG2.2.15 cells (Acs et al. Proc Natl Acad Sci USA, 84, (1987), 4641-4), a constitutively HBV-expressing cell line were cultured in DMEM+Glutamax-I medium (Invitrogen, Carlsbad, Calif., USA), supplemented with 10% fetal bovine serum (Invitrogen) and G418 (Invitrogen) at a final concentration of 200 mg/L and maintained in 5% CO2 at 37° C.
HepG2.2.15 cells were seeded in duplicate into white, 96-well plates at 1.5×10^4 cells/well. The cells were treated with a three-fold serial dilution series of the compounds in DMSO. The final DMSO concentration in all wells was 1% and DMSO was used as no drug control.
The HBsAg chemiluminescence immunoassay (CLIA) kit (Autobio Diagnostics Co., Zhengzhou, China, Catalog number: CL0310-2) was used to measure the levels of secreted HBV antigens semi-quantitatively. For the detection 50 μL/well culture supernatant was used and HBsAg was quantified using HBsAg chemiluminescence immunoassay (CLIA) kit (Autobio Diagnostics Co., Zhengzhou, China, Catalog number: CL0310-2), 50 μL of the supernatant was transferred to the CLIA assay plate and 50 μL of enzyme conjugate reagent was added into each well. The plates were sealed and gently agitated for 1 hour at room temperature. The supernatant-enzyme-mixture was discarded and wells were washed 6 times with 300 μL of PBS. The residual liquid was removed by plating the CLIA plate […] on absorbent tissue paper. 25 μL of substrates A and B were added to each well. Luminance was measured using a luminometer (Mithras LB 940 Multimode Microplate Reader) after 10 minutes incubation. Dose-response curves were generated and the IC50 value was extrapolated by using the E-WorkBook Suite (ID Business Solutions Ltd., Guildford, UK). The IC50 was defined as the compound concentration (or conditioned media log dilution) at which HBsAg secretion was reduced by 50% compared to the no drug control.
The compounds according to formula I were tested for their capacity to inhibit HBsAg as described herein.

[1] = HepG2.2.15 cells, concentration at which HBsAg secretion was reduced by 50% compared to the no drug control, read-out: IC50 (HBsAg assay)
[2] = Hepatitis B virus, HepG2.2.15, HepG2.2.15 cells, concentration at which HBsAg secretion was reduced by 50% compared to the no drug control, read-out: IC50 (HBsAg assay)

| SMILES | IC50 [1] [nM] | IC50 [2] [nM] | other results |
| --- | --- | --- | --- |
| CC1c2cnc(-c3ncccn3)nc2CCN1c1cc(F)c(F)c(OCC(N)=O)c1 (single isomer, unassigned; (-)) [Example 68, (−)-2-[2,3-difluoro-5-[5-methyl-2-pyrimidin-2-yl-7,8-dihydro-5H-pyrido[4,3-d]pyrimidin-6-yl]phenoxy]acetamide] | 74 |  |  |
| COc1cc(F)c(Cl)c(N2CCc3nc(-c4ncccn4)ncc3C2C)c1 (single isomer, unassigned; (-)) [Example 130, (−)-6-(2-chloro-3-fluoro-5-methoxy-phenyl)-5-methyl-2-pyrimidin-2-yl-7,8-dihydro-5H-pyrido[4,3-d]pyrimidine] |  | 679 |  |
| COc1cc(F)cc(N2CCc3nc(-c4ncccn4)ncc3C2C)c1Cl (single isomer, unassigned; (-)) [Example 131, (−)-6-(2-chloro-5-fluoro-3-methoxy-phenyl)-5-methyl-2-pyrimidin-2-yl-7,8-dihydro-5H-pyrido[4,3-d]pyrimidine] |  | 2 |  |
| COc1cc(F)nc(N2CCc3nc(-c4ncccn4)ncc3C2C)c1 (single isomer, unassigned; (-)) [Example 138, (−)-6-(6-fluoro-4-methoxy-2-pyridyl)-5-methyl-2-pyrimidin-2-yl-7,8-dihydro-5H-pyrido[4,3-d]pyrimidine] | 11 |  |  |
| COc1cc(N2CCc3nc(-c4ncccn4)ncc3C2C)nc(F)c1Cl (single isomer, unassigned; (-)) [Example 146, (−)-6-(5-chloro-6-fluoro-4-methoxy-2-pyridyl)-5-methyl-2-pyrimidin-2-yl-7,8-dihydro-5H-pyrido[4,3-d]pyrimidine] |  | 2 |  |
| COc1cc(F)nc(N2CCc3nc(-c4ncccn4)ncc3C2C)c1Cl (single isomer, unassigned; (-)) [Example 147, (−)-6-(3-chloro-6-fluoro-4-methoxy-2-pyridyl)-5-methyl-2-pyrimidin-2-yl-7,8-dihydro-5H-pyrido[4,3-d]pyrimidine] |  | 21 |  |
| CC1c2cnc(-c3ncccn3)nc2CCN1c1cc(OCCCCCCC(=O)O)cc(F)n1 (single isomer, unassigned; (-)) [Example 155, (−)-7-[[2-fluoro-6-[5-methyl-2-pyrimidin-2-yl-7,8-dihydro-5H-pyrido[4,3-d]pyrimidin-6-yl]-4-pyridyl]oxy]heptanoic acid] |  | 12 |  |
| CC1c2cnc(-c3ncccn3)nc2CCN1c1cc(OCCCCCCC(N)=O)cc(F)n1 (single isomer, unassigned; (-)) [Example 156, (−)-7-[[2-fluoro-6-[5-methyl-2-pyrimidin-2-yl-7,8-dihydro-5H-pyrido[4,3-d]pyrimidin-6-yl]-4-pyridyl]oxy]heptanamide] |  | 6 |  |
| CC1c2cnc(-c3ncccn3)nc2CCN1c1cc(OCCCCC(=O)O)cc(F)n1 (single isomer, unassigned; (-)) [Example 157, (−)-5-[[2-fluoro-6-[5-methyl-2-pyrimidin-2-yl-7,8-dihydro-5H-pyrido[4,3-d]pyrimidin-6-yl]-4-pyridyl]oxy]pentanoic acid] |  | 47 |  |
| CC1c2cnc(-c3ncccn3)nc2CCN1c1cc(OCCCCC(N)=O)cc(F)n1 (single isomer, unassigned; (-)) [Example 158, (−)-5-[[2-fluoro-6-[5-methyl-2-pyrimidin-2-yl-7,8-dihydro-5H-pyrido[4,3-d]pyrimidin-6-yl]-4-pyridyl]oxy]pentanamide] |  |  | IC50 (Hepatitis B virus, HepG2.2.15, read-out: IC50 (HBsAg assay)): 16 nM |
| CC1c2cnc(-c3ncccn3)nc2CCN1c1cc(OCCCCCC(=O)O)cc(F)n1 (single isomer, unassigned; (-)) [Example 164, (−)-6-[[2-fluoro-6-[5-methyl-2-pyrimidin-2-yl-7,8-dihydro-5H-pyrido[4,3-d]pyrimidin-6-yl]-4-pyridyl]oxy]hexanoic acid] |  | 22 |  |
| CC1c2cnc(-c3ncccn3)nc2CCN1c1cc(OCCCN2CCOCC2=O)cc(F)n1 (single isomer, unassigned; (-)) [Example 181, (−)-4-[3-[[2-fluoro-6-[5-methyl-2-pyrimidin-2-yl-7,8-dihydro-5H-pyrido[4,3-d]pyrimidin-6-yl]-4-pyridyl]oxy]propyl]morpholin-3-one] |  | 12 |  |
| CC1c2cnc(-c3ncccn3)nc2CCN1c1cc(OCCCC(=O)O)cc(F)n1 (single isomer, unassigned; (-)) [Example 184, (−)-4-[[2-fluoro-6-[5-methyl-2-pyrimidin-2-yl-7,8-dihydro-5H-pyrido[4,3-d]pyrimidin-6-yl]-4-pyridyl]oxy]butanoic acid] |  | 182 |  |
| CC1c2cnc(-c3ncccn3)nc2CCN1c1cc(OCCCC(N)=O)cc(F)n1 (single isomer, unassigned; (-)) [Example 185, (−)-4-[[2-fluoro-6-[5-methyl-2-pyrimidin-2-yl-7,8-dihydro-5H-pyrido[4,3-d]pyrimidin-6-yl]-4-pyridyl]oxy]butanamide] |  | 14 |  |
| CC1c2cnc(-c3ncccn3)nc2CCN1c1cc(F)cc(N(C)C)n1 (single isomer, unassigned; (-)) [Example 205, (−)-4-fluoro-N,N-dimethyl-6-[5-methyl-2-pyrimidin-2-yl-7,8-dihydro-5H-pyrido[4,3-d]pyrimidin-6-yl]pyridin-2-amine] | 5 |  |  |
| CC1c2cnc(-c3ncccn3)nc2CCN1c1cc(F)cc(N2CCNC(=O)C2)n1 (single isomer, unassigned; (-)) [Example 225, (−)-4-[4-fluoro-6-(5-methyl-2-pyrimidin-2-yl-7,8-dihydro-5H-pyrido[4,3-d]pyrimidin-6-yl)-2-pyridyl]piperazin-2-one] | 13 |  |  |
| CC1c2cnc(-c3ccccn3)nc2CCN1c1ccc([N+](=O)[O-])cc1 (stereo not drawn) [Example 1, 5-methyl-6-(4-nitrophenyl)-2-(2-pyridyl)-7,8-dihydro-5H-pyrido[4,3-d]pyrimidine] | 186 |  |  |
| CCC1c2cnc(-c3ccccn3)nc2CCN1c1ccc(S(C)(=O)=O)cc1 (stereo not drawn) [Example 4, 5-ethyl-6-(4-methylsulfonylphenyl)-2-(2-pyridyl)-7,8-dihydro-5H-pyrido[4,3-d]pyrimidine] |  | 1920 |  |
| COc1cc(N2CCc3nc(-c4ccccn4)ncc3C2C)cc(F)c1F (stereo not drawn) [Example 5, 6-(3,4-difluoro-5-methoxy-phenyl)-5-methyl-2-(2-pyridyl)-7,8-dihydro-5H-pyrido[4,3-d]pyrimidine] | 38 |  |  |
| COC(=O)C(C(=O)OC)C1c2cnc(-c3ccccn3)nc2CCN1c1ccc(S(C)(=O)=O)cc1 (stereo not drawn) [Example 8] |  | 19600 |  |
| CCC1c2cnc(-c3ccccn3)nc2CCN1c1cc(F)c(F)c(OC)c1 (stereo not drawn) [Example 9, 6-(3,4-difluoro-5-methoxy-phenyl)-5-ethyl-2-(2-pyridyl)-7,8-dihydro-5H-pyrido[4,3-d]pyrimidine] | 183 |  |  |
| CCCC1c2cnc(-c3ccccn3)nc2CCN1c1cc(F)c(F)c(OC)c1 (stereo not drawn) [Example 12, 6-(3,4-difluoro-5-methoxy-phenyl)-5-propyl-2-(2-pyridyl)-7,8-dihydro-5H-pyrido[4,3-d]pyrimidine] | 7490 |  |  |
| COc1cc(N2CCc3nc(-c4ncccn4)ncc3C2C)cc(F)c1F (stereo not drawn) [Example 15, 6-(3,4-difluoro-5-methoxy-phenyl)-5-methyl-2-pyrimidin-2-yl-7,8-dihydro-5H-pyrido[4,3-d]pyrimidine] | 15 |  |  |
| COc1cc(N2CCc3nc(-c4ccccn4)ncc3C2C2CC2)cc(F)c1F (stereo not drawn) [Example 18] |  | 363 |  |
